Here are results for 21 compounds from patent US20040248887A1, “Inhibitors of cathepsin S” (IRM LLC, priority 2003, published 2004).

The target in the test is Cathepsin S (Homo sapiens, UniProt P25774). Kind of test: Cathepsin S inhibition, fluorogenic peptide substrate kinetic assay. Format: biochemical. The following applies: Table II; Cathepsin S inhibition constant, pH5.5; read-out: Ki Cat. S. Put shortly: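 Ki values derive from apparent constants fitted to progress curves, corrected for competition with substrate via [S] and Km. Kinetics were monitored at 380 nm excitation/450 nm emission, after substrate addition (Ac-HPVK-ACC, 50 μM final) to start the reaction.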
Cathepsin S, sequence (P25774 115-331, species assumed): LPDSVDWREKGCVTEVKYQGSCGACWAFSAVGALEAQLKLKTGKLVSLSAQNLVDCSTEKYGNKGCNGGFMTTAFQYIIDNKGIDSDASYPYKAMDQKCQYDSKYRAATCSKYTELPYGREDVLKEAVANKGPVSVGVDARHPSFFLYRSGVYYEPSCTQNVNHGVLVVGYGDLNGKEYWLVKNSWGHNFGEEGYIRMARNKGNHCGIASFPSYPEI

Usually Ki stands for a dissociation constant, usually derived from enzyme kinetics or from competition with a known ligand. Take `COc1cccc(C(=O)N[C@@H](Cc2ccc(F)cc2)C(=O)N[C@@H](COCc2ccccc2)CN2CCc3cc(F)ccc32)c1` [Compound 37, N-[1-(S)-[1-(R)-Benzyloxymethyl-2-(5-fluoro-2,3-dihydro-indol-1-yl)-ethylcarbamoyl]-2-(4-fluoro-phenyl)-ethyl]-3-methoxy-benzamide]: the Ki was below 0.1 µM.
As for `C[C@@H](CNc1cccc(Cl)c1F)NC(=O)[C@H](CC1CCCCC1)NC(=O)c1ccc(-c2cccc(F)c2)o1` [Compound 96, 5-(3-Fluoro-phenyl)-furan-2-carboxylic acid {1-(S)-[2-(3-chloro-2-fluoro-phenylamino)-1-(S)-methyl-ethylcarbamoyl]-2-cyclohexyl-ethyl}-amide], the figure is below 1 µM; as for `COc1cc(COC[C@@H](CN2CCc3cc(F)ccc32)NC(=O)[C@H](CCC2CCCCC2)NC(=O)c2cccc(OC)c2)cc(OC)c1` [Compound 170, N-{3-Cyclohexyl-1-(S)-[2-(3,5-dimethoxy-benzyloxy)-1-(R)-(5-fluoro-2,3-dihydro-indol-1-ylmethyl)-ethylcarbamoyl]-propyl}-3-methoxy-benzamide], below 0.1 µM.
As for `O=C(N[C@@H](Cc1ccccc1)C(=O)NCCN1CCc2cc(F)ccc21)c1ccc(-c2cccc(C(F)(F)F)c2)o1` [Compound 206, N-((S)-1-(2-(5-fluoroindolin-1-yl)ethylcarbamoyl)-2-phenylethyl)-5-(3-(trifluoromethyl)phenyl)furan-2-carboxamide], the figure is below 1 µM; as for `Cc1cc(NC[C@H](C)NC(=O)[C@H](CC2CCCCC2)NC(=O)c2ccc(-c3cccc(F)c3)o2)on1` [Compound 247, 5-(3-Fluoro-phenyl)-furan-2-carboxylic acid {2-cyclohexyl-1-(S)-[1-(S)-methyl-2-(3-methyl-isoxazol-5-ylamino)-ethylcarbamoyl]-ethyl}-amide], below 1 µM; as for `COc1ccc(NC(C)CNC(=O)[C@H](CC(C)C)NC(=O)c2cccc(C)c2)cc1` (mixture of isomers) [Compound 20, N-{1-(S)-[2-(4-Methoxy-phenylamino)-propylcarbamoyl]-3-methyl-butyl}-3-methyl-benzamide], below 10 µM.
As for `COc1cccc(C(=O)N[C@@H](CCC2CCCCC2)C(=O)NCCN2CCc3cccc(F)c32)c1` [Compound 11, (S)-N-{3-Cyclohexyl-1-[2-(7-fluoro-2,3-dihydro-indol-1-yl)-ethylcarbamoyl]-propyl}-3-methoxy-benzamide], the figure is below 10 µM; as for `Cc1cc(NC[C@H](C)NC(=O)[C@H](CC2CCCCC2)NC(=O)c2ccc(-c3cccc(F)c3)o2)no1` [Compound 133, 5-(3-Fluoro-phenyl)-furan-2-carboxylic acid {2-cyclohexyl-1-(S)-[1-(S)-methyl-2-(5-methyl-isoxazol-3-ylamino)-ethylcarbamoyl]-ethyl}-amide], below 1 µM; as for `CC(C)(C)OC(=O)N[C@@H](CC1CCCCC1)C(=O)N[C@@H](CC(=O)OCc1ccccc1)CN1CCc2cc(F)ccc21` [Compound 261, (S,S)-3-(2-tert-Butoxycarbonylamino-3-cyclohexyl-propionylamino)-4-(5-fluoro-2,3-dihydro-indol-1-yl)-butyric acid benzyl ester], below 0.1 µM.
On to `COc1ccc(N2CCC[C@@H](NC(=O)[C@H](CC(C)C)NC(=O)c3cccc(C)c3)C2)cc1` (single isomer, unassigned) [Compound 32], for which the Ki was below 10 µM.
As to `C[C@@H](CNc1cccc(OC(F)(F)F)c1)NC(=O)[C@H](CC1CCCCC1)NC(=O)c1ccc(-c2cccc(F)c2)o1` [Compound 111, 5-(3-Fluoro-phenyl)-furan-2-carboxylic acid {2-cyclohexyl-1-(S)-[1-(S)-methyl-2-(3-trifluoromethoxy-phenylamino)-ethylcarbamoyl]-ethyl}-amide], the inhibitory constant (Ki) was below 0.1 µM.
For `C[C@@H](CNc1ccc(OC(F)(F)F)cc1)NC(=O)[C@H](CC1CCCCC1)NC(=O)c1cc(-c2ccc(F)cc2)no1` [Compound 146, 3-(4-Fluoro-phenyl)-isoxazole-5-carboxylic acid {2-cyclohexyl-1-(S)-[1-(S)-methyl-2-(4-trifluoromethoxy-phenylamino)-ethylcarbamoyl]-ethyl}-amide], the Ki is below 0.1 µM.
For `CNS(=O)(=O)c1ccc(NC[C@H](C)NC(=O)[C@H](CC2CCCCC2)NC(=O)c2ccc(-c3cccc(F)c3)o2)cc1` [Compound 118, 5-(3-Fluoro-phenyl)-furan-2-carboxylic acid {2-cyclohexyl-1-(S)-[1-(S)-methyl-2-(4-methylsulfamoyl-phenylamino)-ethylcarbamoyl]-ethyl}-amide], the Ki is below 0.1 µM.
With `C[C@@H](CNc1cc(Cl)ccc1F)NC(=O)[C@H](CC1CCCCC1)NC(=O)c1ccc(-c2cccc(F)c2)o1` [Compound 97, 5-(3-Fluoro-phenyl)-furan-2-carboxylic acid {1-(S)-[2-(5-chloro-2-fluoro-phenylamino)-1-(S)-methyl-ethylcarbamoyl]-2-cyclohexyl-ethyl}-amide], the inhibitory constant (Ki) was below 1 µM.
For `CC(=O)Nc1cccc(NC[C@H](C)NC(=O)[C@H](CC2CCCCC2)NC(=O)c2ccc(-c3cccc(F)c3)o2)c1` [Compound 134, 5-(3-Fluoro-phenyl)-furan-2-carboxylic acid {1-(S)-[2-(3-acetylamino-phenylamino)-1-(S)-methyl-ethylcarbamoyl]-2-cyclohexyl-ethyl}-amide] the value was below 0.1 µM; for `C[C@@H](CNc1cccc(C#N)c1)NC(=O)[C@H](CC1CCCCC1)NC(=O)c1ccc(-c2cccc(F)c2)o1` [Compound 100, 5-(3-Fluoro-phenyl)-furan-2-carboxylic acid {1-(S)-[2-(3-cyano-phenylamino)-1-(S)-methyl-ethylcarbamoyl]-2-cyclohexyl-ethyl}-amide], below 0.1 µM; for “(S)-3-Cyclohexyl-N-[2-(5-fluoro-2,3-dihydro-indol-1-yl)-ethyl]-2-(5-methyl-1-phenyl-1H-pyrazole-4-sulfonylamino)-propionamide [Compound 222]”, below 1 µM.
For the compound `CC[C@@H](C(=O)N[C@@H](CC1CCCCC1)C(=O)NCCN1CCc2cc(F)ccc21)c1ccccc1` [Compound 148, N-{2-cyclohexyl-1-(S)-[2-(5-fluoro-2,3-dihydro-indol-1-yl)-ethylcarbamoyl]-ethyl}-2-(R)-phenyl-butyramide], the Ki was below 0.1 µM.
For `C[C@@H](CN1CC(C)(C)c2cc(F)ccc21)NC(=O)[C@H](CC1CCCCC1)NC(=O)O[C@H]1CCOC1` [Compound 217, (S,S)-{2-Cyclohexyl-1-[2-(5-fluoro-3,3-dimethyl-2,3-dihydro-indol-1-yl)-1-methyl-ethylcarbamoyl]-ethyl}-carbamic acid (S)-tetrahydro-furan-3-yl ester], the Ki was below 0.1 µM.
On to `C[C@@H](CNc1ccc(OC(F)(F)F)cc1)NC(=O)[C@H](CC1CCCCC1)NC(=O)[C@H]1CCCO1` [Compound 30, Tetrahydrofuran-2-(R)-carboxylic acid {2-cyclohexyl-1-(S)-[1-(S)-methyl-2-(4-trifluoromethoxy-phenylamino)-ethylcarbamoyl]-ethyl}-amide], for which the Ki is below 0.1 µM.
For `C[C@@H](CNc1cccc(-c2nnn[nH]2)c1)NC(=O)[C@H](CC1CCCCC1)NC(=O)OCc1ccccc1` [Compound 180, (2-Cyclohexyl-1-(S)-{1-(S)-methyl-2-[3-(1H-tetrazol-5-yl)-phenylamino]-ethylcarbamoyl}-ethyl)-carbamic acid benzyl ester] the value was below 1 µM.
